Source: US20250381169A1, “METHODS FOR TREATING RENAL DISEASE” (Arizona Board of Regents on Behalf of the University of …, priority 2022, published 2025)
“Also recorded” adds a separate entry of the source.

Assays:
[1] = tested on: kidney cortex of naïve mice; test: Mitochondrial biogenesis in kidney cortex of naïve mice; assay type: in vivo
Procedure: Mice were treated with vehicle, 0.3 mg/kg or 1 mg/kg of MC16 with 2 doses IP (Oh, 24h) and harvested at 48 h.
Proteins were measured using immunoblot analysis or PCR to measure mRNA. […] FIG. 2G is a table of antioxidant and electron transport chain proteins and associated mRNAs.

[2] = tested on: mice subjected to renal I/R; test: Mouse AKI model (renal ischemia reperfusion, I/R); assay type: in vivo
Procedure: Control and treated mice subjected to renal I/R were treated with MC16 (0.3 mg/kg) or vehicle 24 h after injury and then daily for 120 h (euthanized at 144 h). Using electron microscopy, mitochondria were counted. Vascular permeability was assessed with Evan's blue dye leakage and proteins were measured in renal cortices using immunoblot. Serum creatinine was also measured.

[3] = tested on: renal proximal tubule cells (RPTCs); test: Renal proximal tubule cells treated with high glucose; assay type: cell-based
Procedure: Here, the effects of MC16 on mitochondrial dysfunction and dynamics in renal proximal tubule cells (RPTCs) treated with high glucose and in a mouse model of type 2 diabetes was assessed.

[4] = tested on: Db/db mice; test: db/db mouse model of diabetic kidney disease; assay type: in vivo
Procedure: Db/db and nondiabetic (db/m) mice (10 wk old) were treated with MC16 or vehicle for 3 wk and euthanized.

[5] = tested on: aged mouse kidneys (renal cortex); test: Global metabolomics of renal cortex in aged mice; assay type: in vivo
Procedure: Aged 22-month-old male C57B/6J mice were administered 1.0 mg/kg of MC16 or normal saline every other day over a 21-day interval (n=8-9/group). Seven-month-old C57B/6J male mice (controls) were administered normal saline every other day over a 21-day interval (n=7). Kidneys were harvested and snap frozen in liquid nitrogen. Renal cortex biopsies were analyzed by Metabolon for global metabolomic analyses. Briefly, samples were processed and divided into four fractions: two for analysis by RP/UPLC-MS/MS with (+) ion mode electrospray ionization (IMESI), one for RP/UPLC-MS/MS with (−) IMESI, and one for HILIC/UPLC-MS/MS with (−) IMESI. […] A p-value of p≤0.05 and a false discovery rate of q<0.10 were utilized to identify global metabolite alteration and correct for multiple comparisons, respectively.

[6] = I/R+MC16 group, decreased in I/R group
[7] = RPTCs exposed to 17 mM glucose, 96 h
[8] = FIG. 16, compared to diabetic mice getting vehicle
[9] = db/db mice 10 wk old, treated for 3 wk
[10] = MC16-treated 'old' mice compared to saline-treated 'old' mice
[11] = MC16-treated 'old' mice vs saline-treated 'young' control mice

SMILES: CCN1C(=O)C(Cc2cccc(OC)c2O)(OC(=O)N(C)C)c2cc(Cl)ccc21 (stereo not shown) [MC16, 5-chloro-1-ethyl-3-(2-hydroxy-3-methoxybenzyl)-2-oxoindolin-3-yl dimethylcarbamate]
- mitochondrial and antioxidant proteins ([1]; immunoblot or PCR, n=6): increases
- mitochondrial biogenesis pathway proteins and/or associated mRNA ([1]; immunoblot or PCR, n=6): induces
- Mitochondrial number in kidney cortex ([1]; naïve mice, 0.3 mg/kg or 1 mg/kg, 2 doses IP (0 h, 24 h), harvested at 48 h): increases
- recovery of renal function (serum creatinine) ([2]; FIG. 3, n=6): promotes recovery
- recovery of tubular injury (Kim1 expression) ([2]; FIG. 3, n=6): promotes recovery
- MFN2 ([2]; FIG. 5, during injury or MC16 treatment): did not change
- MFN1 (fusion) ([2]; FIG. 5, n=6): increases
- pDRP1 (fission) ([2]; FIG. 6, at 144 h): decreases
- DRP1 ([2]; FIG. 6, n=6): does not have an affect
- PGC-1α in the cytosolic fraction ([2]; FIG. 7, cytosolic fraction): not in the cytosolic fraction
- nuclear PGC-1α (biogenesis) ([2]; FIG. 7, nuclear fraction): increases
- serum creatinine decrease ([2]; I/R+MC16, 0.3 mg/kg from 24 h after injury, daily, at 144 h (I/R group alone 41%)): 72%
- Kim1 decrease ([2]; I/R+MC16 group, 0.3 mg/kg, 144 h): 50%
- PGC-1α ([2]; I/R+MC16 group, renal cortex immunoblot): increased
- Tight junction protein Claudin5 [2, 6]: recovered
- Tight junction protein ZO-1 [2, 6]: recovered
- Evan's blue dye leakage (vascular permeability) ([2]; I/R+MC16 group, increased 2.5-fold in I/R group): restored
- mitochondria biogenesis in renal cortices ([2]; mitochondria counted by electron microscopy, 0.3 mg/kg): 1.4 fold
- ATP [3, 7]: restored
- ETC proteins [3, 7]: restored
- oxygen consumption rate [3, 7]: restored
- Mfn1 ([3]; RPTCs exposed to high glucose): restored
- phospho-Drp1 ([3]; RPTCs exposed to high glucose): restored
- PGC1α ([4]; FIG. 9, n=6): restores
- MFN2 (fusion) ([4]; FIG. 10, n=6): increased
- mitochondrial fission proteins ([4]; FIG. 11, n=6): no effect
- mitophagy proteins ([4]; FIG. 12, n=6): increases
- glomerular function over time ([4]; FIG. 13, mice have yet to show signs of DKD in the timeframe): does not change
- vascular tight junction proteins ([4]; FIG. 15, n=6): improves
- blood glucose [4, 8]: does not increase/decrease
- urine output [4, 8]: does not increase/decrease
- kidney weight ([4]; FIG. 17, relative to control mice): normalized
- KIM1 ([4]; FIG. 18): normalizes
- NGAL ([4]; FIG. 18): No effects
- serum creatinine ([4]; FIG. 18): normalizes
- ATP [4, 9]: prevented; also recorded: restores
- phospho-Drp1 [4, 9]: restored
- renal cortical ETC protein levels (complexes I, III, and V) [4, 9]: prevented; also recorded: restores
- reduction in DHAP [5, 10]: 20%
- reduction in fructose-6-phosphate [5, 10]: 24%
- reduction in glucose-6-phosphate [5, 10]: 32%
- long chain polyunsaturated fatty acids (n3 and n6) ([5]; MC16-treated 'old' mice vs saline-treated 'old' and 'young' mice controls): increase
- glycolysis metabolites [5, 11]: no statistical changes
- metabolic lipid alterations (diacylglycerols, monoacylglycerols, acyl glycines, PC, PE, plasmalogens, secondary bile acids) [5, 11]: not observed
- origin of carnitine species ([5]; MC16-treated 'old' mice, saline-treated 'old' mice: leucine, isoleucine, valine metabolism): fatty acid metabolism
- carnitine levels ([5]; both 'old' groups (saline and MC16)): elevated
